Patent publication US10125078B1, “NSAID derivatives of omega-3 polyunsaturated acids as gamma secretase modulators” (Jiva Pharma, Inc., priority 2015, dated 2018)
Several values for one entry are separate records, joined by “and”; a condition that tells them apart may be missing. Equal values may be shown once. Read-outs that look alike come from different tables or passages of the source. Blank lines part the entries; values can stand above or below the molecule they belong to.

Legend:
[1] = compared with tarenflurbil; cited from earlier work
Aβ42 peptide = conditions: cited from earlier work
mild AD patients = conditions: cited from earlier work
gamma-secretase = target: T1, gamma-secretase (Homo sapiens, UniProt P49768); assay: gamma-secretase modulating activity in cell cultures of human neuroblastoma SHSY-5 cells, intracellular Aβ x-40 by ELISA; type: cell-based; conditions: for average signal triplicates: cells incubated 18 h, ELISA OD 450 nm; for signal nomalised to cells: normalised to collected cell mass; for sign-bkgr: signal minus background; for experiment 1 / experiment 2 / experiment 3: Aβ ELISA signal, 0 nM about 100; for bestfit2 / bestfit3 / bestfit1: fitted curve; for IC50: read-out: calculated IC50
T1 construct: Fresh human neuroblastoma cells SHSY-5 were purchased from ATCC; host or cells: SH-SY5Y human neuroblastoma cells, untransfected
Description: The gamma-secretase modulating activity of Jiva compounds were determined in Cell Cultures of fresh human neuroblastoma SHSY-5 cells. The enzyme-linked immunosorbent assay (ELISA) is one of the most commonly used, reliable, and sensitive methods for quantitating the A β peptides. The detailed methods for the recovery of both soluble and deposited A β from brain tissue and the subsequent quantitation of the peptides by ELISA are thoroughly described in literature such as Stephen D. Schmidt, et al., “Amyloid, Enzyme-linked immunosorbent assay, ELISA, Extraction, Quantification”, Methods in Molecular Biology, vol. 849, DOI 10.1007/978-1-61779-551-0_34, Springer Science+Business Media, LLC 2012; Zeljko M. Svedruzic, et al., “Modulators of γ-Secretase Activity Can Facilitate the Toxic Side-Effects and Pathogenesis of Alzheimer's Disease”, PLOS ONE, 1 Jan. 2013|Volume 8|Issue 1; Catherine R. Burton et al., “The Amyloid-β Rise and γ-Secretase Inhibitor Potency Depend on the Level of Substrate Expression” Aug. 22, 2008 The Journal of Biological Chemistry 283, 22992-23003.
The well-studied γ-secretase inhibitor, semagacestat (WIKI) was used as a positive control in the above assays.
The following are procedures used for screening gamma-secretase modulating activity of Jiva compounds in cell cultures.
Protocol for Growing SHSY-5 Cells:
Fresh human neuroblastoma cells SHSY-5 were purchased from ATCC in the […]. All SHSY-5 cells were propagated and grown in p75 flasks, following the supplier's instructions. Briefly, SH-SY5Y cells were grown to confluence in Dulbecco's Modified Eagles Medium (DMEM) supplemented with 2 mM L-glutamine, 1× nonessential amino acids, and 0.22 micrometers filtered 10% heat inactivated fetal bovine serum (FBS) in a 5% CO2 humidified incubator at 37° C. Cultures were split twice a week and cells were seeded at 2.5×10^4 cells/cm^2. The cells were detached from the bottles after two phosphate buffer washes that were followed by 5 min treatment with 0.25% trypsine solution.
Protocol for Preparation of Jiva Compounds and the Initial Screening:
Jiva compounds were dissolved under sterile conditions in different volumes of molecular biology grade dimethylsulfoxide (DMSO) so that the final concentration was 200 mM, with the goal to screen in a concentration range from 50 to 1000 μM. Thus, between 1 μL to 20 µL of DMSO solution of each Jiva compound was added to 4 mL of sterile cell media with FBS adjusted to 1%. The cells were incubated with different compounds for 18 h (i.e. overnight). Following the incubation cells were tested for viability and morphology. The first viability criteria was attachment to the surface, the second viability criteria was resistance to trypan blue uptake. Only viable cells were harvested for ELISA screening.
Confluent cells were scraped from p25 cell-culture bottles and collected in pellets by centrifugation for 5 mins at 1000 g. To measure intracellular amyloid β, the centrifugation helps in concentrating Aβ1-40 peptides for measurements. About 40 micro grams of cell can be recovered from 4 mL cell medium in p25 cell culture bottles. The cell pellets were re-suspended in RIPA buffer and incubated on ice for 30 min.
RIPA buffer means 150 mM sodium chloride; 1% NP-40; 0.5% sodium deoxycholate; 0.1% SDS; 50 mM Tris pH 8.0.
Following lysis, the cell debris was separated by centrifugation, 1 h at 40,000×g. The clear supernatant was collected for ELISA measurements that followed immediately after the centrifugation.
ELISA measurements used IBL ELISA kits for Aβ x-40 using manufacturer's protocol and supplied standards. Briefly, for each measurement 100 μL sample was prepared from 12.5 μL lysis buffer and 87.5 μL ASSAYBUF solutions in each well. ASSAYBUF solution were supplied in the kit, and used to incubate cell lysate with anti-amyloid antibody attached to the wells in ELISA plates. The plate covered with plate-lid was incubated with gentle shaking overnight at 4° C. […]

4 year old children = conditions: cited from earlier work
[2] = 100000.0 nM, listed as JIVA002B
[3] = 1000000.0 nM, listed as JIVA002B

Structure (SMILES): CC(C)C[C@H](C(=O)O)c1cc(-c2ccc(C(F)(F)F)cc2)cc(-c2ccc(C(F)(F)F)cc2)c1 [JNJ-40418677]
brain penetration [1]: greater brain penetration | Aβ42 IC50 (Aβ42 peptide): potent

Structure (SMILES): C[C@@H](C(=O)O)c1ccc(-c2ccccc2)c(F)c1 [tarenflurbil]
outcome of large scale clinical trials (mild AD patients): failed large scale clinical trials | potency at inhibiting formation of toxic Aβ42 peptide (Aβ42 peptide): low potency

Structure (SMILES): CC/C=C\C/C=C\C/C=C\C/C=C\C/C=C\C/C=C\CCC(=O)O [DHA, cis,cis,cis,cis,cis,cis-4,7,10,13,16,19-docosahexaenoic acid]
effects on cognitive function (4 year old children): beneficial effects

Structure (SMILES): CC/C=C\C/C=C\C/C=C\CCCCCCCCC1(C(=O)OC(C)(C)C)CC1 [JIVA 25, ALA Cyclopropyl-fibrate t-butyl Ester]
signal nomalised to cells (gamma-secretase; 20 microM): 0.209 and 0.130 | sign-bkgr (gamma-secretase; 20 microM): 0.316 and 0.173

Structure (SMILES): CC/C=C\C/C=C\C/C=C\CCCCCCCCC1(C(=O)O)CC1 [JIVA 27, ALA Cyclopropyl Fibrate]
average signal triplicates (gamma-secretase; 20 microM): 0.355 | signal nomalised to cells (gamma-secretase; 20 microM): 0.201 | sign-bkgr (gamma-secretase; 20 microM): 0.236

Structure (SMILES): O=C(O)C1(c2ccc(-c3ccc(Cl)c(Cl)c3)c(F)c2)CC1 [CHF-5074]
brain penetration [1]: greater brain penetration | Aβ42 IC50 (Aβ42 peptide): potent

Structure (SMILES): CC/C=C\C/C=C\C/C=C\C/C=C\C/C=C\CCCCC1(C(=O)OC(C)(C)C)CC1 [JIVA 24, EPA Cyclopropyl-fibrate t-butyl Ester]
average signal triplicates (gamma-secretase; 7.13 microM): 0.300 | signal nomalised to cells (gamma-secretase; 7.13 microM): 0.233 | sign-bkgr (gamma-secretase; 7.13 microM): 0.246

Continued, values first:

average signal triplicates (gamma-secretase; 20 microM): 0.141 | signal nomalised to cells (gamma-secretase; 20 microM): 0.026 | sign-bkgr (gamma-secretase; 20 microM): 0.021
Structure (SMILES): CC/C=C\C/C=C\C/C=C\CCCCCCCCC(C(=O)O)C1CC1 (centres unmarked) [JIVA 29, ALA Cyclopropyl Acetic Acid Fibrate]

average signal triplicates (gamma-secretase; 2 microM): 0.12 | signal nomalised to cells (gamma-secretase; 2 microM): 0.000 | sign-bkgr (gamma-secretase; 2 microM): 0
Structure (SMILES): CC(C)[C@H](O)C(=O)N[C@@H](C)C(=O)N[C@@H]1C(=O)N(C)CCc2ccccc21 [SEMAGACESTAT, semagacestat, reference compound]

experiment 1 (gamma-secretase; 21.4 nM): 101 | experiment 2 (gamma-secretase; 21.4 nM): 103 | experiment 3 (gamma-secretase; 21.4 nM): 104 | bestfit2 (gamma-secretase; 21.4 nM): 100.0 | bestfit3 (gamma-secretase; 21.4 nM): 100.0 | bestfit1 (gamma-secretase; 21.4 nM, listed as JIVA002B): 100.0 and 99.9 | experiment 1 (gamma-secretase; 74.1 nM): 98 | experiment 2 (gamma-secretase; 74.1 nM): 102 | experiment 3 (gamma-secretase; 74.1 nM): 108 | bestfit2 (gamma-secretase; 74.1 nM): 99.9 | bestfit1 (gamma-secretase; 74.1 nM, listed as JIVA002B): 99.8 and 99.7 | bestfit3 (gamma-secretase; 74.1 nM, listed as JIVA002B): 99.9 and 99.8 | experiment 1 (gamma-secretase; 100.0 nM): 102 | experiment 2 (gamma-secretase; 100.0 nM): 99 | experiment 3 (gamma-secretase; 100.0 nM): 97 | bestfit1 (gamma-secretase; 100.0 nM, listed as JIVA002B): 99.8 and 99.6 | bestfit2 (gamma-secretase; 100.0 nM, listed as JIVA002B): 99.9 and 99.6 | bestfit3 (gamma-secretase; 100.0 nM, listed as JIVA002B): 99.9 and 99.5 | experiment 1 (gamma-secretase; 213.8 nM): 101 | experiment 2 (gamma-secretase; 213.8 nM): 95 | experiment 3 (gamma-secretase; 213.8 nM): 100 | bestfit1 (gamma-secretase; 213.8 nM, listed as JIVA002B): 99.5 and 99.1 | bestfit2 (gamma-secretase; 213.8 nM, listed as JIVA002B): 99.7 and 99.6 | bestfit3 (gamma-secretase; 213.8 nM, listed as JIVA002B): 99.7 and 99.5 | experiment 1 (gamma-secretase; 741.3 nM): 97 | experiment 2 (gamma-secretase; 741.3 nM): 100 | experiment 3 (gamma-secretase; 741.3 nM): 94 | bestfit1 (gamma-secretase; 741.3 nM, listed as JIVA002B): 98.5 and 97.0 | bestfit2 (gamma-secretase; 741.3 nM, listed as JIVA002B): 99.1 and 98.6 | bestfit3 (gamma-secretase; 741.3 nM, listed as JIVA002B): 99.0 and 98.3 | experiment 2 (gamma-secretase; 1000.0 nM): 101 | experiment 3 (gamma-secretase; 1000.0 nM): 104 | experiment 1 (gamma-secretase; 1000.0 nM, listed as JIVA002B): 96 and 95 | bestfit1 (gamma-secretase; 1000.0 nM, listed as JIVA002B): 97.8 and 96.0 | bestfit2 (gamma-secretase; 1000.0 nM, listed as JIVA002B): 99.8 and 98.2 | bestfit3 (gamma-secretase; 1000.0 nM, listed as JIVA002B): 98.6 and 97.8 | experiment 1 (gamma-secretase; 2138.0 nM): 90 | experiment 2 (gamma-secretase; 2138.0 nM): 98 | experiment 3 (gamma-secretase; 2138.0 nM): 90 | bestfit2 (gamma-secretase; 2138.0 nM, listed as JIVA002B): 97.5 and 96.2 | bestfit3 (gamma-secretase; 2138.0 nM, listed as JIVA002B): 97.1 and 95.4 | experiment 2 (gamma-secretase; 7413.1 nM): 85 | experiment 1 (gamma-secretase; 7413.1 nM, listed as JIVA002B): 90 and 75 | experiment 3 (gamma-secretase; 7413.1 nM, listed as JIVA002B): 96 and 79 | bestfit1 (gamma-secretase; 7413.1 nM, listed as JIVA002B): 85.6 and 76.4 | bestfit2 (gamma-secretase; 7413.1 nM, listed as JIVA002B): 91.9 and 87.9 | bestfit3 (gamma-secretase; 7413.1 nM, listed as JIVA002B): 90.5 and 85.6 | experiment 2 (gamma-secretase; 10000.0 nM): 85 | experiment 1 (gamma-secretase; 10000.0 nM, listed as JIVA002B): 88 and 71 | bestfit1 (gamma-secretase; 10000.0 nM, listed as JIVA002B): 81.5 and 70.6 | bestfit2 (gamma-secretase; 10000.0 nM, listed as JIVA002B): 89.4 and 84.4 | bestfit3 (gamma-secretase; 10000.0 nM, listed as JIVA002B): 87.7 and 81.5 | experiment 1 (gamma-secretase; 21379.5 nM, listed as JIVA002B): 73 and 58 | experiment 2 (gamma-secretase; 21379.5 nM, listed as JIVA002B): 73 and 62 | experiment 3 (gamma-secretase; 21379.5 nM, listed as JIVA002B): 79 and 64 | bestfit1 (gamma-secretase; 21379.5 nM, listed as JIVA002B): 57.3 and 52.9 | bestfit2 (gamma-secretase; 21379.5 nM, listed as JIVA002B): 79.7 and 71.6 | bestfit3 (gamma-secretase; 21379.5 nM, listed as JIVA002B): 76.9 and 67.3 | experiment 2 (gamma-secretase; 74131.0 nM): 46 | experiment 1 (gamma-secretase; 74131.0 nM, listed as JIVA002B): 28 and 18 | experiment 3 (gamma-secretase; 74131.0 nM, listed as JIVA002B): 57 and 33 | bestfit2 (gamma-secretase; 74131.0 nM, listed as JIVA002B): 53.1 and 42.1 | bestfit3 (gamma-secretase; 74131.0 nM, listed as JIVA002B): 48.9 and 37.2 | experiment 1 (gamma-secretase; [2]): 26 and 13 | experiment 2 (gamma-secretase; [2]): 49 and 33 | experiment 3 (gamma-secretase; [2]): 46 and 27 | bestfit2 (gamma-secretase; [2]): 45.7 and 35.1 | bestfit3 (gamma-secretase; [2]): 41.5 and 30.5 | experiment 1 (gamma-secretase; 1000000.0 nM): 2 | experiment 2 (gamma-secretase; 1000000.0 nM): 8 | experiment 3 (gamma-secretase; 1000000.0 nM): 2 | bestfit1 (gamma-secretase; [3]): 4.2 and 2.3 | bestfit2 (gamma-secretase; [3]): 7.7 and 5.1 | bestfit3 (gamma-secretase; [3]): 6.6 and 4.2 | average signal triplicates (gamma-secretase; 20 microM): 0.162 | signal nomalised to cells (gamma-secretase; 20 microM): 0.034 | sign-bkgr (gamma-secretase; 20 microM): 0.042 | IC50 (gamma-secretase; first, experiment 1): 44 µM and 24 µM | IC50 (gamma-secretase; second, experiment 2): 84 µM and 54 µM | IC50 (gamma-secretase; third, experiment 3): 71 µM and 44 µM
Structure (SMILES): CC/C=C\C/C=C\C/C=C\C/C=C\C/C=C\CCCCC(C(=O)O)C1CC1 (racemic) [JIVA 28, EPA Cyclopropyl-acetic acid-fibrate]
